Assay results from patent US20060079568A1, “Inhibition of atherosclerosis by diindolylmethane analogs” (The Texas A&M University System, priority 2004, published 2006).
Entries after “also recorded” stand apart in the source; their conditions may differ.

What was measured:
[1] = tested on: ICAM-1; assay: TNF-α-induced cell surface expression of ICAM-1 in HUVECs measured by FACS; type: cell-based, human; settings: then 5 ng/ml TNF-α; for reduction of TNF-α-induced ICAM-1 expression: 10 μmol/L pretreatment 6 hours, vs TNF-α-stimulated control cells; for effect on TNF-α-induced ICAM-1 expression (in words): pretreatment 6 hours (up to 10 μmol/L)
Experimental: The expression of ICAM-1 on the cell surface was determined in HUVECs cultured in six-well plates pretreated with one of the three different p-substituted phenyl DIM analogs or with vehicle (0.1% DMSO) at the concentrations indicated. Their effects were compared with those of other PPARγ agonists by preincubating HUVECs with ciglitazone (Biomol, Plymouth meeting, Pa.) or 15d-PGJ2 (Calbiochem, San Diego, Calif.) at the same doses.
After 6 hours, cells were incubated with TNF-α (R&D Systems, Minneapolis, Minn.) at a concentration of 5 ng/ml for 12 hours. Cells were then detached with 10 mmol/L EDTA in 0.5% phosphate-buffered saline, collected by centrifugation, and stained for 30 minutes on ice in the dark with R-phycoerythrin-labeled monoclonal antibody against ICAM-1 (CD54) or with the appropriate R-phycoerythrin-labeled isotype IgG (Pharmingen, San Diego, Calif.) as a control.
The fluorescence intensity of 10,000 gated viable cells was analyzed for each sample on a FACSCalibur Flow Cytometer (Becton Dickinson Immunocytometry Systems, San Diego, Calif.) using Cell Quest (Becton Dickinson) acquisition software. All experiments were performed in triplicate.

[2] = tested on: IL-6; assay: IL-6 production in supernatants of TNF-α-stimulated HUVECs, ELISA; type: cell-based, human; settings: for IL-6 level in supernatant after TNF-α stimulation: 10 μmol/L pretreatment 6 hours, then 5 ng/ml TNF-α 6 hours, TNF-α alone 228±12.7, baseline 52.8±7.5; for effect on TNF-α-induced IL-6 production (in words): 10 μmol/L pretreatment, 5 ng/ml TNF-α
Experimental: (§1) In order to measure chemokine levels in the cell supernatant, HUVECs cultured in 24-well plates were preincubated for 6 hours with one of the three p-substituted phenyl DIM analogs at the concentrations indicated or with vehicle and then stimulated with 5 ng/ml TNF-α. For comparison, HUVECs were also preincubated with ciglitazone or 15d-PGJ2 at the same concentrations and then stimulated with TNF-α at a concentration of 5 ng/ml. Cell culture supernatants were collected 6 and 24 hours after the stimulation for analysis of IL-6 and MCP-1, respectively.
(§2) The levels of IL-6 and MCP-1 were quantified using commercial ELISA kits (BioSource International, Camarillo, Calif.) according to the manufacturer's directions. The minimum detectable concentration of the assay was 2 pg/ml for IL-6 and <20 pg/ml for MCP-1. All experiments were performed in triplicate.
(§3) To determine the effects of the three p-substituted phenyl DIM analogs on TNF-α-induced chemokine production in HUVECs, cells were pretreated for 6 hours with one of the three analogs at the concentrations indicated or with vehicle and then stimulated with 5 ng/ml TNF-α for the indicated time before the chemokine assays were performed.

[3] = tested on: MCP-1; assay: MCP-1 production in supernatants of TNF-α-stimulated HUVECs, ELISA; type: cell-based, human; settings: for MCP-1 level in supernatant after TNF-α stimulation: 10 μmol/L pretreatment 6 hours; for effect on TNF-α-induced MCP-1 production (in words): 10 μmol/L pretreatment, 5 ng/ml TNF-α
Experimental: as §1, §2, §3

[4] = tested on: HUVECs; assay: Treatment of unstimulated HUVECs: apoptosis and baseline ICAM-1 expression; settings: up to 10 μmol/L, HUVECs without TNF-α (data not shown)
[5] = biological target: T1, PPAR-γ (Homo sapiens, UniProt P37231); settings: earlier structure-activity studies [5]; cited from earlier work
T1 sequence (P37231 1-505): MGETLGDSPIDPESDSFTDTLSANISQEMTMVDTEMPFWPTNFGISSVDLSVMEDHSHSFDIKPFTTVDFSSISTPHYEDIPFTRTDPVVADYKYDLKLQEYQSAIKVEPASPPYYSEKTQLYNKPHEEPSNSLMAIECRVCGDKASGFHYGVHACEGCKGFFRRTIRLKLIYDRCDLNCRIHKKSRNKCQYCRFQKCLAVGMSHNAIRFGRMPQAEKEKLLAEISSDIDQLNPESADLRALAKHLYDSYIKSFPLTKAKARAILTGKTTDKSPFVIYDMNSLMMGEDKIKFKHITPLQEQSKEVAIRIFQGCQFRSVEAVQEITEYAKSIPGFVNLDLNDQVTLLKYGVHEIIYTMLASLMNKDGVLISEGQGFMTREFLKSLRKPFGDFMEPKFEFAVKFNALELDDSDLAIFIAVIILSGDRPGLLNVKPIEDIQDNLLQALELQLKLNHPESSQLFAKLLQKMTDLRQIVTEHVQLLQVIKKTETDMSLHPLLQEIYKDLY

[6] = then 5 ng/ml TNF-α 24 hours, TNF-α alone 7.8±0.19, baseline 1.05±0.07

Structure (SMILES)	reduction of TNF-α-induced ICAM-1 expression [1]	effect on TNF-α-induced ICAM-1 expression (in words) [1]	IL-6 level in supernatant after TNF-α stimulation [2]	effect on TNF-α-induced IL-6 production (in words) [2]	MCP-1 level in supernatant after TNF-α stimulation ([3]; then 5 ng/mL TNF-α, comparison agonists)	effect on TNF-α-induced MCP-1 production (in words) [3]	change of baseline expression of ICAM-1 [4]	MCP-1 level in supernatant after TNF-α stimulation [3, 6]	PPAR-γ agonist activity [5]	induction of apoptosis [4]
CCCCC/C=C/C=C1/C(=O)C=C[C@@H]1C/C=C\CCCC(=O)O [15d-PGJ2, 15-deoxy-δ^12,14-prostaglandin J2, reference compound]	84.4%	significantly inhibited; also recorded: decreased	29.8 ± 1.6 pg/mL	significantly inhibited	1.5 ± 0.3 ng/mL	significantly inhibited	did not induce apoptosis or change the baseline expression of ICAM-1	–	–	–
CC(C)(C)c1ccc(C(c2c[nH]c3ccccc23)c2c[nH]c3ccccc23)cc1 [DIM-C-pPhtBu, 1,1-bis(3′-indolyl)-1-(p-t-butylphenyl) methane]	77.5%	inhibited; also recorded: decreased the expression of ICAM-1 in a concentration-dependent manner	130.3 ± 19.3 pg/mL	inhibited	–	inhibited	–	3.9 ± 0.41 ng/mL	potent; also recorded: active agents	–
c1ccc(-c2ccc(C(c3c[nH]c4ccccc34)c3c[nH]c4ccccc34)cc2)cc1 [DIM-C-pPhC6H5, 1,1-bis(3′-indolyl)-1-(p-biphenyl) methane]	71.3%	inhibited; also recorded: decreased	143.4 ± 12.2 pg/mL	inhibited	–	inhibited	–	2.2 ± 0.49 ng/mL	potent; also recorded: active agents	–
CC1(COc2ccc(CC3SC(=O)NC3=O)cc2)CCCCC1 (stereo not shown) [ciglitazone, reference compound]	–	inactive; also recorded: no inhibitory effect	207 ± 13 pg/mL	inactive	–	inactive	–	–	–	did not induce apoptosis
Cc1ccc(C(c2c[nH]c3ccccc23)c2c[nH]c3ccccc23)cc1 [DIM-C-pPhCH3]	32%	lower activity; also recorded: inactive	–	lower activity; also recorded: did not decrease; also recorded: did not significantly inhibit	–	lower activity; also recorded: did not decrease; also recorded: did not affect	–	–	less active; also recorded: low PPAR-γ agonist activity; also recorded: relatively inactive	–
